Test results published in the NIST ThermoML archive (doi:10.1021/acs.jced.7b00694).

Assay: xn = mol fraction of the nth substance listed
Conditions: Gas, Buoyancy - hydrostatic balance with magnetic suspension - one sinker

[HH] [hydrogen] + N#N
Conditions | mass density [kg/m3]
274.99 K, 14000 kPa, x2 = 0.95 | 162.308
274.99 K, 14998 kPa, x2 = 0.5001 | 91.878
274.99 K, 15002 kPa, x2 = 0.95 | 173.076
274.99 K, 16011 kPa, x2 = 0.95 | 183.72
274.99 K, 17006 kPa, x2 = 0.95 | 194.006
275 K, 13999 kPa, x2 = 0.9 | 153.123
275 K, 15005 kPa, x2 = 0.9 | 163.298
275 K, 15997 kPa, x2 = 0.5001 | 97.397
275 K, 16004 kPa, x2 = 0.9 | 173.22
275 K, 17000 kPa, x2 = 0.5001 | 102.851
275 K, 17005 kPa, x2 = 0.9 | 182.969
275 K, 17996 kPa, x2 = 0.5001 | 108.187
275 K, 18001 kPa, x2 = 0.95 | 204.074
275 K, 18013 kPa, x2 = 0.9 | 192.591
275 K, 19000 kPa, x2 = 0.5001 | 113.476
275 K, 19012 kPa, x2 = 0.9 | 201.918
275 K, 19017 kPa, x2 = 0.95 | 214.131
275 K, 19574 kPa, x2 = 0.5001 | 116.461
275 K, 19891 kPa, x2 = 0.9 | 209.964
275 K, 20152 kPa, x2 = 0.95 | 225.084
299.93 K, 997 kPa, x2 = 0.95 | 10.683
299.93 K, 998 kPa, x2 = 0.9 | 10.171
299.93 K, 1999 kPa, x2 = 0.9 | 20.375
299.93 K, 2984 kPa, x2 = 0.9 | 30.399
299.93 K, 3997 kPa, x2 = 0.9 | 40.678
299.93 K, 4997 kPa, x2 = 0.9 | 50.784
299.93 K, 5997 kPa, x2 = 0.9 | 60.838
299.93 K, 6998 kPa, x2 = 0.9 | 70.842
299.93 K, 7998 kPa, x2 = 0.9 | 80.755
299.93 K, 8998 kPa, x2 = 0.9 | 90.589
299.93 K, 9998 kPa, x2 = 0.9 | 100.316
299.93 K, 10998 kPa, x2 = 0.9 | 109.939
299.93 K, 11999 kPa, x2 = 0.9 | 119.448
299.93 K, 12999 kPa, x2 = 0.9 | 128.823
299.93 K, 14000 kPa, x2 = 0.9 | 138.079
299.93 K, 14998 kPa, x2 = 0.9 | 147.162
299.93 K, 16001 kPa, x2 = 0.9 | 156.149
299.93 K, 17004 kPa, x2 = 0.9 | 164.981
299.93 K, 18004 kPa, x2 = 0.9 | 173.629
299.93 K, 19002 kPa, x2 = 0.9 | 182.11
299.93 K, 19557 kPa, x2 = 0.9 | 186.761
299.94 K, 998 kPa, x2 = 0.5001 | 5.984
299.94 K, 1998 kPa, x2 = 0.5001 | 11.937
299.94 K, 1998 kPa, x2 = 0.95 | 21.43
299.94 K, 2984 kPa, x2 = 0.95 | 32.013
299.94 K, 2999 kPa, x2 = 0.5001 | 17.846
299.94 K, 3997 kPa, x2 = 0.95 | 42.862
299.94 K, 3998 kPa, x2 = 0.5001 | 23.691
299.94 K, 4997 kPa, x2 = 0.95 | 53.549
299.94 K, 4998 kPa, x2 = 0.5001 | 29.485
299.94 K, 5998 kPa, x2 = 0.5001 | 35.223
299.94 K, 5998 kPa, x2 = 0.95 | 64.189
299.94 K, 6997 kPa, x2 = 0.5001 | 40.897
299.94 K, 6999 kPa, x2 = 0.95 | 74.769
299.94 K, 7997 kPa, x2 = 0.5001 | 46.51
299.94 K, 7999 kPa, x2 = 0.95 | 85.271
299.94 K, 8996 kPa, x2 = 0.5001 | 52.057
299.94 K, 9000 kPa, x2 = 0.95 | 95.695
299.94 K, 9998 kPa, x2 = 0.5001 | 57.555
299.94 K, 10000 kPa, x2 = 0.95 | 106.004
299.94 K, 10997 kPa, x2 = 0.5001 | 62.968
299.94 K, 10999 kPa, x2 = 0.95 | 116.189
299.94 K, 11998 kPa, x2 = 0.5001 | 68.317
299.94 K, 12000 kPa, x2 = 0.95 | 126.269
299.94 K, 12994 kPa, x2 = 0.5001 | 73.577
299.94 K, 13002 kPa, x2 = 0.95 | 136.232
299.94 K, 13996 kPa, x2 = 0.5001 | 78.8
299.94 K, 14000 kPa, x2 = 0.95 | 146.008
299.94 K, 14998 kPa, x2 = 0.5001 | 83.948
299.94 K, 14999 kPa, x2 = 0.95 | 155.65
299.94 K, 15992 kPa, x2 = 0.5001 | 88.984
299.94 K, 16000 kPa, x2 = 0.95 | 165.148
299.94 K, 16992 kPa, x2 = 0.5001 | 93.982
299.94 K, 17005 kPa, x2 = 0.95 | 174.51
299.94 K, 17997 kPa, x2 = 0.5001 | 98.934
299.94 K, 18000 kPa, x2 = 0.95 | 183.626
299.94 K, 18998 kPa, x2 = 0.5001 | 103.792
299.94 K, 19003 kPa, x2 = 0.95 | 192.638
299.94 K, 19854 kPa, x2 = 0.5001 | 107.886
299.94 K, 19889 kPa, x2 = 0.95 | 200.449
324.94 K, 12002 kPa, x2 = 0.95 | 115.15
324.94 K, 14997 kPa, x2 = 0.95 | 141.813
324.94 K, 15998 kPa, x2 = 0.95 | 150.466
324.94 K, 16993 kPa, x2 = 0.95 | 158.937
324.94 K, 17986 kPa, x2 = 0.95 | 167.256
324.94 K, 19001 kPa, x2 = 0.95 | 175.603
324.94 K, 19731 kPa, x2 = 0.9 | 171.908
324.94 K, 19880 kPa, x2 = 0.95 | 182.728
324.95 K, 998 kPa, x2 = 0.5001 | 5.527
324.95 K, 998 kPa, x2 = 0.9 | 9.371
324.95 K, 998 kPa, x2 = 0.95 | 9.855
324.95 K, 1998 kPa, x2 = 0.5001 | 11.018
324.95 K, 1998 kPa, x2 = 0.95 | 19.717
324.95 K, 1999 kPa, x2 = 0.9 | 18.75
324.95 K, 2983 kPa, x2 = 0.9 | 27.94
324.95 K, 2984 kPa, x2 = 0.95 | 29.414
324.95 K, 2996 kPa, x2 = 0.5001 | 16.446
324.95 K, 3997 kPa, x2 = 0.95 | 39.338
324.95 K, 3999 kPa, x2 = 0.5001 | 21.856
324.95 K, 3999 kPa, x2 = 0.9 | 37.374
